Data published in patent publication US20050261221A1, “Compositions and methods for enhanced delivery of compounds via transfection complexes” (priority 2004, published 2005).
“And” between values parts separate entries of the source, which are not always exact repeats. Identical values can stand only once. “Also recorded” adds a separate entry of the source.

Columns and labels:
[1] = test system: vascular smooth muscle cells (VSMCs); assay: Transfection of VSMCs with cationic phospholipid (EDOPC)-DNA complexes, β-galactosidase microplate fluorometric assay; assay type: cell-based, Wistar rats; settings: for Effect on transfection: 0.001-0.5 μM cytochalasin B for 3 h, then DNA-lipid complexes 3 h
Description: Primary vascular smooth muscle cells were obtained by removal of the thoracoabdominal aortas of Wistar rats, which were then stripped of endothelium and adventitia. Medial VSMCs were maintained in Dubecco's Modified Eagle's Medium (DMEM), 20% fetal bovine serum (FBS), 200 units/ml penicillin, 200 μg/ml streptomycin (all Gibco, Gaitherburg, Md.) at 37° C. with 5% CO2. At confluence, the cells were passaged using 0.25 mg/ml Trypsin/EDTA (Clonetics, Walkersville, Md.) and were used at passage 3-10 for these experiments.
The cells were seeded in 96-well plates at 24 h before transfection at densities to give about 80% confluence at the time of transfection. Normally, EDOPC was suspended in D-PBS at 1 mg/ml to form liposomes. Liposomes and plasmid DNA were diluted in serum-free cell culture medium to 60 μg/ml for lipid and to 20 μg/ml for DNA, and liposomes were pipetted into an equal volume of plasmid DNA solution at a 3:1 weight ratio and mixed gently. The resultant DNA-lipid complexes were incubated at room temperature for 15 min and then added to the cells that were either in medium lacking serum or medium containing 20% fetal bovine serum (FBS). At 3 h after addition of DNA-lipid complexes, except as stated otherwise, the cells were washed with PBS and fresh medium containing 20% FBS was added. Generally, the cells were incubated with free drugs in 20% FBS DMEM for the indicated duration, and then, unless otherwise described, the cells were washed with PBS and incubated with DNA-lipid complexes. For experiments involving co-treatment with taxol and colchicine, the cells were first incubated with taxol for 30 min and then colchicine was added to the medium. […] Subsequent steps were same as for the normal lipoplexes.
Cells were assayed for β-galactosidase activity 24 h after transfection with a microplate fluorometric assay, modified by inclusion of a heating step (50° C., 45 min) to inactivate endogenous enzyme activity. Following aspiration of the medium from each well, the cells were washed once with PBS and then lysed by addition of 100 μl lysis buffer (0.03% Triton X-100 in 100 mM HEPES, pH 7.8, containing 1 mM MgSO4, 10 mM KCl). The plates were placed at 50° C. for 45 min and then allowed to cool to room temperature. 10 μl 100 μM FDG (fluorescein di-β-D-galactopyranoside) was added into each well. Fluorescence was measured with a microplate fluorimeter (Model 7620, Cambridge Technology Inc.) after incubation at 37° C. for 3 h. Fluorescence intensity is proportional to β-galactosidase expression; 2000 fluorescence units corresponded approximately to 0.1 milliunit of β-galactosidase. The expression of VSMCs transfected with normal lipoplexes in absence of serum and any pretreatment was ˜0.1 milliunit per well.

[2] = test system: nerve growth factor (NGF) mRNA; settings: reported [39]; cited from earlier work
[3] = cited from earlier work
[4] = 100 μM TLCK in fresh 20% FBS after 3 h lipoplex treatment

Question: For `COC(=O)Nc1nc2ccc(C(=O)c3cccs3)cc2[nH]1` [Nocodazole, nocodazole], which “Fold increase of transfection means ± S.D.” value ([1]; optimal conditions: 50 μM free drug, 3 h pretreatment, 20% FBS) is on record?
Answer: The value was 14 ± 2.0 fold.

Question: And the “Fold increase of transfection means ± S.D.” value ([1]; optimal conditions: 50 μM free drug, 3 h pretreatment, 20% FBS, listed as nocodazole)?
Answer: Its value is 14 fold.

Question: What about the “Fold increase of transfection means ± S.D.” value ([1]; optimal conditions: 50 μM free drug, 3 h pretreatment, No serum) of the same compound?
Answer: The value was 31 ± 5.0 fold.

Question: What about the “Fold increase of transfection means ± S.D.” value ([1]; optimal conditions: 50 μM free drug, 3 h pretreatment, No serum, listed as nocodazole) of the same compound?
Answer: Its value is 31 fold.

Question: And the “Effect on the level of NGF mRNA” value [2]?
Answer: Its value is “increase”.

Question: Which inhibition at 10 µM ([1]; Rattus norvegicus, VSMC, read-out: Reduction of transfection with VB-lipoplexes (inhibition of vinblastine stimulation), 10 μM PDTC in fresh 20% FBS after 3 h lipoplex treatment) does the source give for `S=C(S)N1CCCC1` [PDTC, pyrrolidinedithiocarbamate] here?
Answer: Its inhibition at 10 µM is 85%.

Question: What about the “Transfection stimulation by VB-lipoplexes” value ([1]; after treatment with 10 μM PDTC) of the same compound?
Answer: Its value is 5 ×.

Question: With `Cc1ccc(S(=O)(=O)N[C@@H](CCCCN)C(=O)CCl)cc1` [TLCK, Nα-p-tosyl-L-lysine chloromethyl ketone] as the compound, how does the “Decrease of transfection of VB-lipoplexes (inhibition of vinblastine stimulation)” value [1, 4] read?
Answer: The value was 66%.

Question: And the “Decrease of transfection of normal lipoplexes” value [1, 4]?
Answer: The value was 50%.

Question: Which “Fold increase of transfection means ± S.D.” value ([1]; optimal conditions: 1/50 (w/w) VC/lipid incorporated in lipid, 20% FBS during 3 h incubation with complexes) does the source give for `CC[C@]1(O)C[C@H]2CN(CCc3c([nH]c4ccccc34)[C@@](C(=O)OC)(c3cc4c(cc3OC)N(C=O)[C@H]3[C@@](O)(C(=O)OC)[C@H](OC(C)=O)[C@]5(CC)C=CCN6CC[C@]43[C@@H]65)C2)C1` [Vincristine, vincristine] here?
Answer: Its value is 39 ± 6.9 fold.

Question: And the “Fold increase of transfection means ± S.D.” value ([1]; optimal conditions: 1/50 (w/w) VC/lipid incorporated in lipid, 20% FBS during 3 h incubation with complexes, listed as vincristine)?
Answer: The value was 39 fold.

Question: What about the “Fold increase of transfection means ± S.D.” value ([1]; optimal conditions: 1/50 (w/w) VC/lipid incorporated in lipid, No serum during 3 h incubation with complexes) of the same compound?
Answer: Its value is 25 ± 5.7 fold.

Question: What about the “Fold increase of transfection means ± S.D.” value ([1]; optimal conditions: 1/50 (w/w) VC/lipid incorporated in lipid, No serum during 3 h incubation with complexes, listed as vincristine) of the same compound?
Answer: The value was 25 fold.

Question: Which results are given for `COc1cc2c(c(OC)c1OC)-c1ccc(OC)c(=O)cc1[C@@H](NC(C)=O)CC2` [colchicine, Colchicine]?
Answer: Effect on transfection when added to cells simultaneously with lipoplexes ([1]; 0.05 μg/ml colchicine, simultaneous with lipoplexes, absence of serum): increased marginally; Effect on expression when added to cells simultaneously with lipoplexes ([1]; free colchicine added simultaneously with lipoplexes): not noticeably stimulated; also recorded: no stimulation; Fold increase of transfection (β-galactosidase expression) ([1]; pretreatment with 8 μg/ml free colchicine 3 h, 20% FBS): ~23 fold and 24 fold; Fold increase of transfection (β-galactosidase expression) ([1]; pretreatment with 8.0 μg/ml free colchicine 3 h, absence of serum): ~23 fold; Effect on the level of NGF mRNA [2]: increase

Question: For `C=C1[C@@H](C)[C@H]2[C@H](Cc3ccccc3)NC(=O)[C@]23OC(=O)/C=C/[C@H](O)CCC[C@@H](C)C/C=C/[C@H]3[C@@H]1O` [cytochalasin B], which Effect on transfection [1] is on record?
Answer: Its Effect on transfection is “No effect”.

Question: And the Effect on transfection ([1]; listed as Cytochalasin B)?
Answer: Its Effect on transfection is “no effect”.

Question: And the “Effect on the level of NGF mRNA” value [2]?
Answer: Its value is “does not increase”.

Question: Which “Fold effect on transfection relative to no pretreatment” value ([1]; 1 μM monensin for 15 min, then normal DNA-lipid complexes (FIG. 6)) does the source give for `CC[C@@]1([C@@H]2O[C@@H]([C@H]3O[C@@](O)(CO)[C@H](C)C[C@@H]3C)C[C@@H]2C)CC[C@H]([C@]2(C)CC[C@]3(C[C@H](O)[C@@H](C)[C@@H]([C@@H](C)[C@@H](OC)[C@H](C)C(=O)O)O3)O2)O1` [monensin] here?
Answer: The value was 9.5 fold.

Question: With `COc1cc([C@@H]2c3cc4c(cc3[C@H](O)[C@H]3COC(=O)[C@H]23)OCO4)cc(OC)c1OC` [podophyllotoxin] as the compound, how does the “Fold increase of transfection means ± S.D.” value ([1]; optimal conditions: 20 μM free drug, 3 h pretreatment, 20% FBS) read?
Answer: Its value is 14 fold and 14 ± 5.8 fold.

Question: And the “Fold increase of transfection means ± S.D.” value ([1]; optimal conditions: 20 μM free drug, 3 h pretreatment, No serum)?
Answer: Its value is 26 fold and 26 ± 4.5 fold.

Question: With `CC(=O)O[C@H]1C(=O)[C@@]2(C)[C@H]([C@H](OC(=O)c3ccccc3)[C@]3(O)C[C@H](OC(=O)[C@H](O)[C@@H](NC(=O)c4ccccc4)c4ccccc4)C(C)=C1C3(C)C)[C@]1(OC(C)=O)CO[C@@H]1C[C@@H]2O` [taxol] as the compound, how does the “Effect on the stimulation of transfection by colchicine” value ([1]; 4 μM taxol 30 min, then 0.8 μg/ml colchicine added) read?
Answer: Its value is “blocked”.

Question: And the “Effect on transfection efficiency, taxol alone” value ([1]; pretreatment with 4 μM taxol 3 h)?
Answer: Its value is “no effect”.

Question: What about the “Effect on the stimulation of VB-lipoplexes” value ([1]; pretreatment with taxol) of the same compound?
Answer: The value was “blocked”.

Question: What about the “Effect on colchicine's increase of NGF mRNA” value [2] of the same compound?
Answer: Its value is “suppresses”.

Question: With `CC[C@]1(O)C[C@@H]2CN(CCc3c([nH]c4ccccc34)[C@@](C(=O)OC)(c3cc4c(cc3OC)N(C)[C@H]3[C@@](O)(C(=O)OC)[C@H](OC(C)=O)[C@]5(CC)C=CCN6CC[C@]43[C@@H]65)C2)C1` [vinblastine] as the compound, how does the “Stimulation of transfection of SMGA-β-Gal plasmid (smooth muscle γ-actin gene promoter)” value ([1]; CMV-IEP-β-Gal replaced with SMGA-β-Gal, preliminary result) read?
Answer: Its value is “not stimulated”.

Question: What about the “Maximal stimulation of transgene expression” value ([1]; vinblastine incorporated into the lipoplexes) of the same compound?
Answer: The value was about 30 fold.

Question: What about the “Effect on the level of NGF mRNA” value [2] of the same compound?
Answer: Its value is “increase”.

Question: And the Solubility in chloroform ([3]; chloroform)?
Answer: Its Solubility in chloroform is “soluble”.

Question: And the Solubility in water ([3]; water)?
Answer: The Solubility in water was “essentially insoluble”.
